Source: US20230348493A1, “COMPOUND FOR ADJUSTING ACTIVITY OF NMDA RECEPTOR, AND PHARMACEUTICAL COMPOSITION AND USE THEREOF” (BEIJING GREATWAY PHARMACEUTICAL TECHNOLOGY CO., LTD., priority 2020, published 2023)

Test system: rats
Test: Forced swimming test in rats
Assay type: in vivo
Details: Rattus norvegicus, 48 h, Po, Day 2, *P<0.05, **P<0.01 compared with the control group, read-out: Reduction percentage (%) of floating time, Day 2
Experimental: Pharmacodynamic evaluation was performed by the forced swimming tests in rats. The experimental animals were male SD rats weighing 150 g-180 g and being SPF grade, and acclimated for one week after purchase, and then subjected to forced swimming tests, the rats need be fasted for 12 hours before the tests. The compounds of examples were dissolved with normal saline, and blank control group (normal saline) and example compound administration group were established. 8-10 rats were provided for each group. On the day before the tests, the rats were placed in a glass cylinder with a height of 40 cm, an inner diameter of 18 cm, and a water depth of 23 cm for pre-swimming for 15 min, and a water temperature was 28° C. After the pre-swimming the rats were removed, wiped with a dry cloth, and dried with an electrical heater, then returned to a rearing cage, and administered. A formal forced swimming test was performed on the next day for a total of 5 min. The accumulated immobility time within 5 min was recorded, and a second forced swimming test was performed on the seventh day; the criteria for determining immobility were that the rats stopped struggling in the water, were in a floating state, and had only slight limb movements to keep the head floating on the water surface. The results are shown in Table 4, and the experimental data were statistically analyzed by GraphPad Prism 5.0 software.

SMILES | inhibition in vivo at 0.1 mg/kg
C[C@@H](O)[C@H](N)C(=O)N1CC2(C1)NCCS2.Cl [A-006] | 36.4%
Cl.N[C@@H](CO)C(=O)N1CC2(C1)NCCS2 [A-007] | 35.1%
CC(C)[C@H](N)C(=O)N1CC2(C1)NCCS2.Cl [A-008] | 54.9%
C[C@@H](O)[C@H](N)C(=O)N1CCC2(C1)NCCS2.Cl (stereo partly drawn) [A-020] | 51.8%
C[C@@H](O)[C@H](N)C(=O)N1CCC2(CC1)NCCS2.Cl [A-034] | 71.9%

Same assay, conditions: Rattus norvegicus, 168 h, Po, Day 7, *P<0.05, **P<0.01 compared with the control group, read-out: Reduction percentage (%) of floating time, Day 7

SMILES | inhibition in vivo at 0.1 mg/kg
C[C@@H](O)[C@H](N)C(=O)N1CC2(C1)NCCS2.Cl [A-006] | 22.2%
Cl.N[C@@H](CO)C(=O)N1CC2(C1)NCCS2 [A-007] | 32.4%
CC(C)[C@H](N)C(=O)N1CC2(C1)NCCS2.Cl [A-008] | 57.3%
C[C@@H](O)[C@H](N)C(=O)N1CCC2(C1)NCCS2.Cl (stereo partly drawn) [A-020] | 59.3%
C[C@@H](O)[C@H](N)C(=O)N1CCC2(CC1)NCCS2.Cl [A-034] | 60.1%

Molecular target: T1, NMDA receptor (Rattus norvegicus, UniProt P35439)
T1 construct: After the rats were decapitated, the prefrontal cortex and hippocampus were rapidly separated on ice; from tissue; host or cells: SD male rat prefrontal cortex and hippocampus, crude synaptosomes
Test: Inhibition of [3H]-MK-801 binding to rat crude synaptosomes (receptor ligand binding assay)
Details: affinity on NMDA; [3H]-MK-801 10 nM, rat prefrontal cortex and hippocampus crude synaptosomes; read-out: IC50
Experimental: The affinity of the tested compounds on NMDA receptor was researched by receptor ligand binding assays.
Ten SD male rats of SPF grade were ordered and acclimated for 7 days for future use.
(§1) After the rats were decapitated, the prefrontal cortex and hippocampus were rapidly separated on ice and weighed, 10 volumes of 50 mM Tris-HCl buffer (50 mM Tris-HCl, 5 mM MgCl2·6H2O, 1 mM EDTA, 0.5% (W/V) BSA, 1 mM PMSF, 0.32 M sucrose, pH 7.4) was added, and the mixture was homogenized for five times at 1500 revolutions/min with 30 s each time. A homogenate was centrifuged for 10 min at 1000×g, and a supernatant was taken and centrifuged for 10 min at 40,000×g, the precipitates were collected, re-suspended with volumes of Tris-HCl buffer, incubated at 37° C. for 10 min, and centrifuged for 10 min at 40,000×g, finally the precipitates were re-suspended with the above buffer, aliquoted and stored at −80° C. for later use.
(2) Detection of Inhibitory Function of Tested Medicines on Binding of Crude Synaptosomes in Rats to [^3H]-MK-801
50 μg of rat crude synaptosomal proteins was added to all tubes respectively. A volume of 50 μl of MK-801 (dizocilpine) was added to a non-specific binding tube to achieve a final concentration of 100 μM, and the materials were reacted for 15 min in advance. 20 μL of control drug at corresponding concentration was added to the test tube for reaction for 15 min. A volume of 30 μl of labeled ligand [^3H]-MK-801 was successively added to all tubes to achieve a final concentration of 10 nM. All reaction tubes were supplemented to a volume of 200 μl with 50 mM Tris-HCl buffer (50 mM Tris-HCl, 5 mM MgCl2·6H2O, 1 mM EDTA, 0.5% (WN) BSA, 0.1% NaN3, pH 7.4). A reaction was carried out at 37° C. for 10 min. A type-49 glass fiber filter membrane was prepared and a sample was applied at the same time. The filter membrane was placed in a multi-head cell collector, and a reaction system was subjected to suction filtration under negative pressure and washed with an ice-cold 50 mM Tris-HCl buffer, 10 ml each time, for a total of 5 times. After suction drying, 1 ml of scintillation liquid was added to the filter membrane, the filter membrane was placed on a shaker for shaking for 1.5 h and then placed in a liquid scintillation counter on the next day to determine the radioactive intensity.
GraphPad5.0 software was used to analyze the data, and the percentage of competitive inhibition was calculated through nonlinear fitting, wherein:
Percentage of competitive inhibition %=((total binding tube cpm−compound cpm)/(total binding tube cpm−non-specific binding tube cpm))×100%;
Specific binding amount=total binding amount−non-specific binding amount, wherein each binding site was determined by double compound tubes.

SMILES | IC50
C[C@@H](O)[C@H](N)C(=O)N1CC2(C1)NCCS2.Cl [A-006] | 0.44 nM
Cl.N[C@@H](CO)C(=O)N1CC2(C1)NCCS2 [A-007] | 0.89 nM
CC(C)[C@H](N)C(=O)N1CC2(C1)NCCS2.Cl [A-008] | 0.89 nM
C[C@@H](O)[C@H](N)C(=O)N1CCC2(C1)NCCS2.Cl (stereo partly drawn) [A-020] | 0.25 nM
C[C@@H](O)[C@H](N)C(=O)N1CCC2(CC1)NCCS2.Cl [A-034] | 0.89 nM
CC(=O)N1CCSC12CCN(C(=O)[C@@H](N)[C@@H](C)O)CC2.Cl [A-082] | 0.89 nM
C[C@@H](O)[C@H](N)C(=O)N1CCC2(CC1)N[C@H](C(N)=O)CS2.Cl [A-274] | 0.28 nM
C[C@H](NC(=O)[C@@H]1CSC2(CN(C(=O)[C@@H](N)[C@@H](C)O)C2)N1)C(N)=O.Cl [A-378] | 1.66 nM
CC(=O)N1CCC2(C1)N[C@H](C(=O)N[C@H](C(N)=O)[C@@H](C)O)CS2.Cl (stereo partly drawn) [A-384] | 0.42 nM
C[C@@H](O)[C@H](NC(=O)[C@@H]1CSC2(CCNCC2)N1)C(N)=O.Cl [A-390] | 0.39 nM

Test system: not listed separately
Test: In-vivo metabolism (pharmacokinetic) study in rats, oral / tail intravenous
Details: male, SD, rat, plasma; oral 10 mg/kg vs intravenous 1 mg/kg, rats
Experimental: The pharmacokinetic parameters such as exposure of plasma concentrations of the compounds of examples were evaluated by oral/tail intravenous injection model tests in rats in order to evaluate the in-vivo metabolic stability in rats.
The male SD rats weighing 200±20 g and being SPF grade were used in this experiment and purchased from SPF.
Preparation of intravenous solution: 1 mg of each tested medicine was weighed accurately, and a volume was metered to 5 mL with 0.9% sodium chloride solution to prepare 0.2 mg/mL. A dose volume was 1 mL for per 200 g of weight, and the dose was 1 mg for per 1 kg of weight based on the concentration conversion.
Preparation of intragastric solution: 10 mg of each tested medicine was accurately weighed, and a volume was metered to 10 mL with 0.9% sodium chloride solution to prepare 1 mg/mL of the solution. A dose volume was 2 mL for per 200 g of weight, and the dose was 10 mg for per 1 kg of weight based on the concentration conversion.
Rats were randomly divided into 8 groups, 6 rats were in each group, oral gavage administration and tail intravenous administration were performed according to the above doses. About 0.2 mL of orbital blood was collected before administration and at 2 min, 5 min, 15 min, 30 min, 1 h, 2 h, 3 h, 4 h and 6 h after administration, respectively, and centrifuged at 3000 rpm for 10 min at 4° C., and a supernatant was taken for LC/MS/MS determination. A DAS pharmacokinetics program was used to analyze the measured data and calculate the main pharmacokinetic parameters.

SMILES | bioavailability
C[C@@H](O)[C@H](N)C(=O)N1CC2(C1)NCCS2.Cl [A-006] | 21.2%
CC(=O)N1CCSC12CCN(C(=O)[C@@H](N)[C@@H](C)O)CC2.Cl [A-082] | 19.6%
C[C@@H](O)[C@H](N)C(=O)N1CCC2(CC1)N[C@H](C(N)=O)CS2.Cl [A-274] | 62.7%

Same assay, conditions: rat; Intravenous injection, 1 mg/kg, male SD rats, plasma

SMILES | AUC(0-t) | Cmax
C[C@@H](O)[C@H](N)C(=O)N1CC2(C1)NCCS2.Cl [A-006] | 16500 ng·h/mL | 11600 ng/mL
CC(=O)N1CCSC12CCN(C(=O)[C@@H](N)[C@@H](C)O)CC2.Cl [A-082] | 6850 ng·h/mL | 18300 ng/mL
C[C@@H](O)[C@H](N)C(=O)N1CCC2(CC1)N[C@H](C(N)=O)CS2.Cl [A-274] | 1630 ng·h/mL | 2480 ng/mL

Same assay, conditions: rat; Oral, 10 mg/kg, male SD rats, plasma

SMILES | AUC(0-t) | Cmax
C[C@@H](O)[C@H](N)C(=O)N1CC2(C1)NCCS2.Cl [A-006] | 35000 ng·h/mL | 18400 ng/mL
CC(=O)N1CCSC12CCN(C(=O)[C@@H](N)[C@@H](C)O)CC2.Cl [A-082] | 13400 ng·h/mL | 5580 ng/mL
C[C@@H](O)[C@H](N)C(=O)N1CCC2(CC1)N[C@H](C(N)=O)CS2.Cl [A-274] | 3350 ng·h/mL | 1880 ng/mL

Molecular target: T1, NMDA receptor
Test: NMDA receptor agonistic properties in rat crude synaptosomal proteins (maximum [3H]-MK-801 binding vs 1 mM glycine)
Assay type: biochemical
Details: maximum [3H]-MK-801 binding % relative to 1 mM glycine; 50 μM glutamic acid
Experimental: as §1
(3) Detection of Influence of Tested Medicines on NMDA Receptor Agonistic Properties in Rat Crude Synaptosomal Proteins
100 μg of rat crude synaptosomal proteins was added to all tubes respectively. 50 μl of 5,7-dichlorokynurenic acid was added to a non-specific binding tube to achieve a final concentration of 10 μM. All tubes were preloaded with 50 μM of glutamic acid, and the materials were reacted for 15 min in advance. 20 μL of control drug at corresponding concentration was added to the test tube, and then reacted for 15 min. 1 mM glycine was added to the maximum reaction tube. A volume of 30 μl of labeled ligand [^3H]-MK-801 was successively added to all tubes to achieve a final concentration of 10 nM, and reacted for 15 min. All reaction tubes were supplemented to a volume of 500 μl with 50 mM Tris-HCl buffer (50 mM Tris-HCl, 5 mM MgCl2·6H2O, 1 mM EDTA, 0.5% (WN) BSA, 0.1% NaN3, pH 7.4). A reaction was carried out at 37° C. for 15 min. A type-49 glass fiber filter membrane was prepared and a sample was applied at the same time. The filter membrane was placed in a multi-head cell collector, and the reaction system was subjected to suction filtration under negative pressure and washed with an ice-cold 50 mM Tris-HCl buffer, 10 ml each time, for a total of 5 times. After suction drying, 1 ml of scintillation liquid was added to the filter membrane, the filter membrane was placed on the shaker for shaking for 1.5 h and then placed in the liquid scintillation counter on the next day to determine the radioactive intensity.
In an agonistic experiment, maximum [^3H]-MK-801 binding %=((tested compounds cpm−5,7 dichlorokynurenic acid cpm)/(1 mM glycine cpm−5,7 dichlorokynurenic acid cpm))×100%.

SMILES | Maximum agonistic efficacy (%)
C[C@@H](O)[C@H](N)C(=O)N1CC2(C1)NCCS2.Cl [A-006] | 32%
Cl.N[C@@H](CO)C(=O)N1CC2(C1)NCCS2 [A-007] | 56%
CC(C)[C@H](N)C(=O)N1CC2(C1)NCCS2.Cl [A-008] | 35%
C[C@@H](O)[C@H](N)C(=O)N1CCC2(C1)NCCS2.Cl (stereo partly drawn) [A-020] | 42%
C[C@@H](O)[C@H](N)C(=O)N1CCC2(CC1)NCCS2.Cl [A-034] | 25%
CC(=O)N1CCSC12CCN(C(=O)[C@@H](N)[C@@H](C)O)CC2.Cl [A-082] | 45%
C[C@@H](O)[C@H](N)C(=O)N1CCC2(CC1)N[C@H](C(N)=O)CS2.Cl [A-274] | 55%
C[C@H](NC(=O)[C@@H]1CSC2(CN(C(=O)[C@@H](N)[C@@H](C)O)C2)N1)C(N)=O.Cl [A-378] | 49%
CC(=O)N1CCC2(C1)N[C@H](C(=O)N[C@H](C(N)=O)[C@@H](C)O)CS2.Cl (stereo partly drawn) [A-384] | 39%
C[C@@H](O)[C@H](NC(=O)[C@@H]1CSC2(CCNCC2)N1)C(N)=O.Cl [A-390] | 55%
